According to paper PMC8443696, “Structural determinants and regulation of spontaneous activity in GABAA receptors” (Nature Communications, 2021):
Several values for one entry are separate records, joined by “and”; a condition that tells them apart may be missing. Equal entries are not always repeated.

Experiments:
α4β3δ GABAARs = test system: T1, α4β3δ GABAARs; assay: Single-channel recording of spontaneous currents, outside-out patches of HEK cells; format: cell-based, mouse; details: 100 nM THDOC, absence of GABA, individual patches
T1 construct: expressed in transfected cells; host or cells: HEK cells (outside-out patches)
Procedure: To limit ion channel density in individual patches, HEK cells were transfected with 5 ng α4, β3, δ and eGFP cDNAs. Resulting spontaneous single-channel currents were digitised at a sampling rate of 20 kHz and filtered at 5 kHz with a 4-pole Bessel filter (24 dB per octave). A fixed time resolution of 80 μs was used as a preset. Recordings were undertaken using thick-walled borosilicate patch pipettes (6–10 MΩ) filled with a solution containing (mM): 145 CsCl, 2.5 NaCl, 10 HEPES, 1 EGTA, 4 MgATP, pH 7.3. Osmolarity was 300 ± 20 mOsm/L. Cells were perfused with an external solution consisting of (mM): 145 NaCl, 2.5 KCl, 1 CaCl2, 1 MgCl2, 10 HEPES, 10 glucose, pH 7.3. Prior control recordings were obtained using untransfected HEK cells to identify endogenous channel currents.
Channel currents were digitally low pass filtered at 1–2 kHz prior to analysis. […] Channel dwell states were identified using a threshold cursor method. This state transition detection method for open and shut events was used to assemble an idealised record of the digitised data. Open times affected by channel stacking were not included in the analyses and sub-conductance states were also rare and excluded from the analysis.
The analysis of the dwell times for single-channel currents was performed by fitting a mixture of exponential components to the open time distributions. These defined the mean open times and their relative proportions (area of the components) based on using a Levenberg-Marquardt non-linear least-squares routine (WinEDR ver 3.8.7, courtesy of J Dempster, University of Strathclyde).

α4β2δ receptor = test system: T2, α4β2δ receptor; assay: Quantification of spontaneous activity (Ispont) in HEK cells, whole-cell patch clamp; format: cell-based, mouse; details: THDOC 100 nM (Fig. 6b)
T2 construct: expressed in transfected cells; host or cells: HEK 293
Description: All components were obtained from Life Technologies.
Currents were acquired with Clampex ver.
Cells were voltage clamped at −40 mV.
For assessment of the efficacy of allosteric modulators on spontaneous activity, compounds were briefly applied (3–5 s) to achieve steady-state currents (IMod). […] The IMod was summed with IPTX (or subtracted for inhibitory modulators) and the Ispont calculated, as described by Eq. (2):2 Ispont(%)=[(IPTX+IMod)/(IPTX+IMax)]×100……………………………………

## C[C@]12CC[C@@H](O)C[C@H]1CC[C@@H]1[C@@H]2CC[C@]2(C)[C@@H](C(=O)CO)CC[C@@H]12 [THDOC, tetrahydro-deoxycorticosterone]
α4β3δ GABAARs
  Area A1 of open time distribution (row head printed 'thdoc t2', r12): did not significantly affect
  Area A2 of open time distribution (thdoc t2, r14): did not significantly affect
α4β3δ GABAARs; listed as thdoc
  Area A1 of open time distribution (row head printed 'thdoc t2', r12): 7.49E+01 and 60.19 and 6.51E+01 and 8.65E+01 and 4.84E+01 and 64.73 and 86.6 and 77.97 and 79.7 and 73.6
  Area A2 of open time distribution (thdoc t2, r14): 25.1 and 39.81 and 34.92 and 13.51 and 51.6 and 35.27 and 13.4 and 22.03 and 20.3 and 26.4
α4β2δ receptor
  Ispont in the presence of modulator: 0% and 0.09895% and 0.3365%
